Patent US10407467B2, “Polymyxin derivatives and their use in combination therapy together with different antibiotics” (priority 2013, dated 2019)
Where a name gives a salt, the structure may show the parent alone. Numbered stars: 1 amine (or outer) side, 2 acyl side, 3 side chain; on linkers, the order of the positions; unused ones are H or OH. Bridge positions count the residues as written; N and C are the ends. Square brackets hold non-standard residues; d marks the D form. Peptide text beside a SMILES is read from it. * marks the point of attachment. ξ: configuration not given here. Cyclohexanoyl(cis-4-NH2) = N[C@H]1CC[C@@H](C(=O)*)CC1; GABA(4S-Me) = C[C@@H](CCC(=O)[*:2])N[*:1]; X17 = CN1CCN(c2ccc(C(=O)*)cc2)CC1; NMeGABA = CN(CCCC(=O)[*:2])[*:1]; X8 = N[C@@H]1CC[C@H](C(=O)*)C1; Thr(3ξ) = CC(O)[C@H](N)C(=O)O; Propanoyl(3-OH) = O=C(CCO)*; Dab = NCC[C@H](N)C(=O)O; Inp = O=C(O)C1CCNCC1; Glycolyl = O=C(CO)*

Key:
Assay type in all cases: cell-based
[1] = test system: Klebsiella pneumoniae; test: MIC, compound in combination with a second agent (broth microdilution); settings: 1:1 (wt:wt) combination with Rifampicin; for MIC K. pneumoniae NCTC 13438: strain NCTC 13438; for MIC K. pneumoniae ATCC 4352: strain ATCC 4352
Outline: (§1)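 Read-out is the total-drug MIC of a 1:1 weight ratio combination with another agent, e.g. rifampicin. Duplicates within 2-fold gave the lower value; wider spread meant a non-valid assay. Where compounds were tested multiple times, the mode is given.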

[2] = test system: Escherichia coli; test: as above; settings: 1:1 (wt:wt) combination with Rifampicin
Outline: as §1

[3] = test system: Klebsiella pneumoniae; test: MIC, sole activity (no second agent); settings: in the absence of Rifampicin; strain ATCC 4352
Outline: (§2)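 Up to four strains per species were tested in cation-adjusted Mueller-Hinton broth, with inoculum made by direct colony suspension from 18-24 hour Mueller-Hinton agar plates, adjusted to 0.5 McFarland. Duplicates differing by under 2-fold gave the lower value; greater spread voided the run. Values are relative to Polymyxin B.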

[4] = test system: Escherichia coli; test: MIC, sole activity (no second agent); settings: in the absence of Rifampicin; strain ATCC25922
Outline: as §2

[5] = test system: Pseudomonas aeruginosa; test: MIC, sole activity (no second agent); settings: in the absence of Rifampicin; strain ATCC27853
Outline: as §2

[6] = test system: Pseudomonas aeruginosa; test: MIC, compound in combination with a second agent (broth microdilution); settings: 1:1 (wt:wt) combination with Rifampicin; for MIC P. aeruginosa ATCC CRM-9027: strain ATCC CRM-9027
Outline: as §1

[7] = test system: Acinetobacter baumannii; test: as above; settings: 1:1 (wt:wt) combination with Rifampicin, MIC = total drug concentration; for MIC A. baumannii NCTC 13424: strain NCTC 13424
Outline: as §1

[8] = MIC = total drug concentration, strain ATCC-BAA-2146
[9] = MIC = total drug concentration, strain CCUG-59348
[10] = MIC = total drug concentration, strain ATCC25922
[11] = MIC = total drug concentration, strain CCUG 59626
[12] = MIC = total drug concentration, strain ATCC 27853
[13] = MIC is total drug concentration

| MIC K. pneumoniae ATCC-BAA-2146 [1, 8] | MIC K. pneumoniae CCUG-59348 [1, 9] | MIC K. pneumoniae NCTC 13438 ([1]; MIC = total drug concentration) | MIC E. coli ATCC25922 [2, 10] | MIC K. pneumoniae ATCC 4352 [3] | MIC E. coli ATCC25922 [4] | MIC P. aeruginosa ATCC 27853 [5] | MIC P. aeruginosa CCUG 59626 [6, 11] | MIC A. baumannii NCTC 13424 [7] | MIC P. aeruginosa ATCC 27853 [6, 12] | SMILES | also measured |
| --- | --- | --- | --- | --- | --- | --- | --- | --- | --- | --- | --- |
| 1 micrograms/mL | 2 micrograms/mL | 1 micrograms/mL | 0.5 micrograms/mL |  |  |  |  |  |  | CC(C)C[C@@H]1NC(=O)[C@@H](CC(C)C)NC(=O)[C@H](CCN)NC(=O)[C@@H](NC(=O)[C@H](CCN)NC(=O)[C@@H](NC(=O)C(O)C2CCCCC2)C(C)O)CCNC(=O)[C@H](C(C)O)NC(=O)[C@H](CCN)NC(=O)[C@H](CCN)NC1=O (single isomer, unassigned; isomer 2) [Example 32, 2(RS)-(2-Hydroxy-2-cyclohexyl)ethanoyl polymyxin E nonapeptide, TFA salt. Isomer 2] | MIC E. coli NCTC9001 ([2]; MIC = total drug concentration, strain NCTC9001): 1 micrograms/mL |
| 2 micrograms/mL | 8 micrograms/mL |  |  | 4 micrograms/mL | >32 micrograms/mL | 0.5 micrograms/mL | 0.25 micrograms/mL | 0.5 micrograms/mL |  | CC(C)C[C@@H]1NC(=O)[C@@H](Cc2ccccc2)NC(=O)[C@H](CCN)NC(=O)[C@@H](NC(=O)[C@H](CCN)NC(=O)[C@@H](NC(=O)CCO)C(C)O)CCNC(=O)[C@H](C(C)O)NC(=O)[C@H](CCN)NC(=O)[C@H](CCN)NC1=O (stereo partly shown) [Example 26, 3-Hydroxypropanoyl polymyxinB nonapeptide] ({Propanoyl(3-OH)}-[Thr(3ξ)][Dab][Dab][Dab][dF]L[Dab][Dab][Thr(3ξ)]; lactam 3-C) |  |
|  |  |  | <0.06 micrograms/mL |  |  |  |  |  |  | CC(C)C[C@@H]1NC(=O)[C@@H](Cc2ccccc2)NC(=O)[C@H](CCN)NC(=O)[C@@H](NC(=O)[C@H](CCN)NC(=O)[C@@H](NC(=O)[C@H]2CC[C@@H](N)C2)C(C)O)CCNC(=O)[C@H](C(C)O)NC(=O)[C@H](CCN)NC(=O)[C@H](CCN)NC1=O (stereo partly drawn) [Example 34B, (1S,3R)-3- Aminocyclopentane carbonyl polymyxin B nonapeptide] (X8-[Thr(3ξ)][Dab][Dab][Dab][dF]L[Dab][Dab][Thr(3ξ)]; lactam 3-C) | MIC P. aeruginosa ATCC CRM-9027 ([6]; MIC = total drug concentration): 0.25 micrograms/mL |
| 1 micrograms/mL | 4 micrograms/mL |  | 0.125 micrograms/mL |  |  |  | ≤0.06 micrograms/mL |  | ≤0.06 micrograms/mL | CC(C)C[C@@H]1NC(=O)[C@@H](Cc2ccccc2)NC(=O)[C@H](CCN)NC(=O)[C@@H](NC(=O)[C@H](CCN)NC(=O)[C@@H](NC(=O)[C@H](CCN)NC(=O)C2CCNCC2)C(C)O)CCNC(=O)[C@H](C(C)O)NC(=O)[C@H](CCN)NC(=O)[C@H](CCN)NC1=O (stereo partly shown) [Example 53, Piperidin-4-yl carbonyl-polymyxin B decapeptide, trifluoroacetate salt] (H-[Inp][Dab][Thr(3ξ)][Dab][Dab][Dab][dF]L[Dab][Dab][Thr(3ξ)]; lactam 5-C) | MIC K. pneumoniae ATCC 4352 ([1]; MIC = total drug concentration): ≤0.06 micrograms/mL |
| 1 micrograms/mL | 4 micrograms/mL |  | 0.25 micrograms/mL |  |  |  | ≤0.06 micrograms/mL |  | ≤0.06 micrograms/mL | CC(C)C[C@@H]1NC(=O)[C@@H](Cc2ccccc2)NC(=O)[C@H](CCN)NC(=O)[C@@H](NC(=O)[C@H](CCN)NC(=O)[C@@H](NC(=O)[C@H](CCCCN)NC(=O)C2CCNCC2)C(C)O)CCNC(=O)[C@H](C(C)O)NC(=O)[C@H](CCN)NC(=O)[C@H](CCN)NC1=O (stereo partly drawn) [Example 54, Piperidin-4-yl carbonyl-L-Lys-polymyxin B nonapeptide, trifluoroacetate salt] (H-[Inp]K[Thr(3ξ)][Dab][Dab][Dab][dF]L[Dab][Dab][Thr(3ξ)]; lactam 5-C) | MIC K. pneumoniae ATCC 4352 ([1]; MIC = total drug concentration): 0.125 micrograms/mL |
| 1 micrograms/mL | 4 micrograms/mL |  | 0.125 micrograms/mL |  |  |  | 0.25 micrograms/mL |  | 0.25 micrograms/mL | CC(C)C[C@@H]1NC(=O)[C@@H](Cc2ccccc2)NC(=O)[C@H](CCN)NC(=O)[C@@H](NC(=O)[C@H](CCN)NC(=O)[C@@H](NC(=O)c2ccc(N3CCN(C)CC3)cc2)C(C)O)CCNC(=O)[C@H](C(C)O)NC(=O)[C@H](CCN)NC(=O)[C@H](CCN)NC1=O (stereo partly shown) [Example 55, 4-(4-Methyl-piperazin-1-yl) benzoyl polymyxin B nonapeptide] (X17-[Thr(3ξ)][Dab][Dab][Dab][dF]L[Dab][Dab][Thr(3ξ)]; lactam 3-C) | MIC K. pneumoniae ATCC-BAA-2146 [1, 13]: 1 micrograms/mL; MIC K. pneumoniae CCUG-59348 [1, 13]: 4 micrograms/mL; MIC E. coli ATCC25922 [2, 13]: 0.125 micrograms/mL; MIC P. aeruginosa ATCC 27853 [6, 13]: 0.25 micrograms/mL; MIC P. aeruginosa CCUG 59626 [6, 13]: 0.25 micrograms/mL |

Further lines, the compound ahead of its results:

| SMILES | MIC K. pneumoniae ATCC-BAA-2146 [1, 8] | MIC K. pneumoniae CCUG-59348 [1, 9] | MIC K. pneumoniae NCTC 13438 ([1]; MIC = total drug concentration) | MIC E. coli ATCC25922 [2, 10] | MIC K. pneumoniae ATCC 4352 [3] | MIC E. coli ATCC25922 [4] | MIC P. aeruginosa ATCC 27853 [5] | MIC P. aeruginosa CCUG 59626 [6, 11] | MIC A. baumannii NCTC 13424 [7] | MIC P. aeruginosa ATCC 27853 [6, 12] | also measured |
| --- | --- | --- | --- | --- | --- | --- | --- | --- | --- | --- | --- |
| CC(C)C[C@@H]1NC(=O)[C@@H](Cc2ccccc2)NC(=O)[C@H](CCN)NC(=O)[C@@H](NC(=O)[C@H](CCN)NC(=O)[C@@H](NC(=O)CO)C(C)O)CCNC(=O)[C@H](C(C)O)NC(=O)[C@H](CCN)NC(=O)[C@H](CCN)NC1=O (stereo partly shown) [Example 8, Hydroxyacetyl polymyxin B nonapeptide] (Glycolyl-[Thr(3ξ)][Dab][Dab][Dab][dF]L[Dab][Dab][Thr(3ξ)]; lactam 3-C) | 2 micrograms/mL | 8 micrograms/mL |  |  | 8 micrograms/mL | 32 micrograms/mL | 0.25 micrograms/mL | 0.25 micrograms/mL | 0.5 micrograms/mL |  |  |
| CNCCCC(=O)N[C@H](C(=O)N[C@@H](CCN)C(=O)N[C@H]1CCNC(=O)[C@H](C(C)O)NC(=O)[C@H](CCN)NC(=O)[C@H](CCN)NC(=O)[C@H](CC(C)C)NC(=O)[C@@H](Cc2ccccc2)NC(=O)[C@H](CCN)NC1=O)C(C)O (stereo partly shown) [Example 16, 4-(N-methylamino)-butanoyl polymyxin B nonapeptide] (NMeGABA-[Thr(3ξ)][Dab][Dab][Dab][dF]L[Dab][Dab][Thr(3ξ)]; lactam 3-C) |  |  | 0.5 micrograms/mL |  | 0.5 micrograms/mL | 0.5 micrograms/mL | 0.25 micrograms/mL | 0.125 micrograms/mL | 0.125 micrograms/mL |  | MIC P. aeruginosa ATCC CRM-9027 ([6]; MIC = total drug concentration): 0.125 micrograms/mL |
| CC(C)C[C@@H]1NC(=O)[C@@H](Cc2ccccc2)NC(=O)[C@H](CCN)NC(=O)[C@@H](NC(=O)[C@H](CCN)NC(=O)[C@@H](NC(=O)[C@H]2CC[C@@H](N)CC2)C(C)O)CCNC(=O)[C@H](C(C)O)NC(=O)[C@H](CCN)NC(=O)[C@H](CCN)NC1=O (stereo partly drawn) [Example 20, Cis-4-aminocyclohexane carbonyl polymyxin B nonapeptide] ({Cyclohexanoyl(cis-4-NH2)}-[Thr(3ξ)][Dab][Dab][Dab][dF]L[Dab][Dab][Thr(3ξ)]; lactam 3-C) | 0.25 micrograms/mL | 4 micrograms/mL | 0.25 micrograms/mL |  | 0.125 micrograms/mL | 2 micrograms/mL | 0.125 micrograms/mL | 0.125 micrograms/mL | <0.06 micrograms/mL |  | MIC P. aeruginosa ATCC-47 ([6]; MIC = total drug concentration, strain ATCC-47): 0.125 micrograms/mL; MIC A. baumannii CCUG57249 ([7]; strain CCUG57249): ≤0.06 micrograms/mL |
| CC(C)C[C@@H]1NC(=O)[C@@H](Cc2ccccc2)NC(=O)[C@H](CCN)NC(=O)[C@@H](NC(=O)[C@H](CCN)NC(=O)[C@@H](NC(=O)CC[C@H](C)N)C(C)O)CCNC(=O)[C@H](C(C)O)NC(=O)[C@H](CCN)NC(=O)[C@H](CCN)NC1=O (stereo partly drawn) [Example 24, 4S-aminopentanoyl polymyxin B nonapeptide] ({GABA(4S-Me)}-[Thr(3ξ)][Dab][Dab][Dab][dF]L[Dab][Dab][Thr(3ξ)]; lactam 3-C) | 0.5 micrograms/mL | 8 micrograms/mL |  |  | 0.5 micrograms/mL | >32 micrograms/mL | 0.25 micrograms/mL | 0.25 micrograms/mL | 0.5 micrograms/mL |  |  |
